# Assay results as given in patent US20250243196A1, “CITRON KINASE INHIBITORS” (The Cleveland Clinic Foundation, priority 2021, published 2025).
# Tests used:
# Citron kinase [1] = biological target: T1, Citron kinase (Homo sapiens (Human), UniProt O14578); assay: Radiometric citron kinase assay (Eurofins Cat #16-040KP); assay type: biochemical
# Outline: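 Radiometric KinaseProfiler format: test compound incubated with kinase, substrate, cofactors and radiolabelled ATP; unreacted ATP washed away and radiolabelled phosphate incorporated into substrate measured. IC50 derived from inhibition of phosphorylation. Values are means of at least two independent assays.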
# [2] = biological target: NanoLuc-CITK (full-length human CITK) (Homo sapiens (Human), UniProt O14578); assay: NanoBRET intracellular target engagement assay; assay type: cell-based
# Procedure: In-cell Kd values were evaluated with a NanoBRET Target Engagement Assay essentially as recommended by the manufacturer (Promega Corporation—for details see https://www.promega.com/resources/technologies/nanoluc-luciferase-enzyme/cellular-target-engagement/).
# HEK293T cells were transfected with 5.0 μg/mL sterile NanoLuc-CITK DNA, 5.0 μg/mL Transfection Carrier DNA, and 30 μL/mL FugeneHD® (Promega) in Opti-Mem™ (Thermo) media at a cell density of 250,000 cells/mL. […] 5 μL of the 25× Tracer K10 solution was added to each well. Next, designated inhibitors were prepared from powder as 10 mM DMSO stocks and then further diluted to 10× the final assay concentration in Opti-Mem™. 12-pt dose-response curves were prepared by 3×-serial dilution. […] A 3× Complete Substrate+Inhibitor solution, containing 6 mL of Opti-Mem™, 36 μL of NanoBRET Nano-Glo Substrate, and 12 μL Extracellular NanoLuc Inhibitor was freshly prepared for each plate. 50 μL of the 3× Complete Substrate+Inhibitor solution was added to all wells and the plate was incubated for 2 min with 500 RPM shaking. The bottom of the plates were covered with black plate seals and then measured on a Cytation 5 plate reader (Biotek) with a NanoBRET Filter Cube (Biotek; 450/50 emission & 610LP emission). Background corrected BRET ratios (in mBU) were calculated in Excel and IC50's were subsequently extracted using four-parameter non-linear regression in GraphPad Prism 8.
# Citron kinase [3] = biological target: T1, Citron kinase; assay: TR-FRET citron kinase assay (Eurofins Cat #2628); assay type: biochemical; details: mean of at least two independent assays; read-out: TR-FRET CitK IC50
# Excerpt: Compounds were screened for biochemical kinase activity (Eurofins Discovery, France) using one of two assays. […] All values in Table 1 are the mean of at least two independent assays.
# IKKβ = IKKβ (Homo sapiens (Human), UniProt O14920); assay: KinaseProfiler radiometric assay (14-485KP); assay type: biochemical; details: mean of at least two independent experiments
# Sequence of IKKβ (O14920 whole entry): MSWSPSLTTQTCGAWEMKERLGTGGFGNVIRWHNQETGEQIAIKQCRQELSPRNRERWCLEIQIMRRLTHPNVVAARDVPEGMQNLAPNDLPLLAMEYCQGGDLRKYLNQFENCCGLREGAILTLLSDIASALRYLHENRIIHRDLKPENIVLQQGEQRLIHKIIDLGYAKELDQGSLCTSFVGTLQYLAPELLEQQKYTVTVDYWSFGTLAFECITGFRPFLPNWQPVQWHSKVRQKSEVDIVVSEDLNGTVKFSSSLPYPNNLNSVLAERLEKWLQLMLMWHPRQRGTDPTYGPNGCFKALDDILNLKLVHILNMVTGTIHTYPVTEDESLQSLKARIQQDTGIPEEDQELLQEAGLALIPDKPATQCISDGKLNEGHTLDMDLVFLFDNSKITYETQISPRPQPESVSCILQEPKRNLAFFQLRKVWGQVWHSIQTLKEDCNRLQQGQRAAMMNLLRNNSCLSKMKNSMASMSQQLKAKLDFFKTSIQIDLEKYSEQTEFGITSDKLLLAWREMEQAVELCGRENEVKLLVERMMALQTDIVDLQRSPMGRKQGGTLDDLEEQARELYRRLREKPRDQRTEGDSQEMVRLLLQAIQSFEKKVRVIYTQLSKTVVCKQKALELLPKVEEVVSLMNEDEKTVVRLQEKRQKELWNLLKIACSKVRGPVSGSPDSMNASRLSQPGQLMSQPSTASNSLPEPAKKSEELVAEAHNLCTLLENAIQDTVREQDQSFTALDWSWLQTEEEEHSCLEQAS
# Excerpt: (§1) In another aspect, disclosed is a method of inhibiting citron kinase in a sample, comprising contacting the sample with a compound described herein (e.g., a compound of formula (I) or a pharmaceutically acceptable salt thereof), or a pharmaceutical composition described herein (e.g., a pharmaceutical composition comprising a compound of formula (I) or a pharmaceutically acceptable salt thereof), in an amount effective to inhibit citron kinase. In some embodiments, the step of contacting the sample with the compound comprises administering the compound to a subject (e.g., a subject) suffering from cancer. Methods of determining kinase inhibition are well known in the art. For example, kinase activity of an enzyme and the inhibitory capacity of a test compound can be determined by measuring enzyme specific phosphorylation of a substrate. Commercial assays and kits can be employed. For example, kinase inhibition can be determined using a radiometric binding assay, such as using KinaseProfiler™ technology (Eurofins Discovery). This assay method directly detects product formation without the use of modified substrates or coupling enzymes. Test compounds are incubated with kinase, substrate, required cofactors and radioisotope labeled ATP. Following incubation, unreacted radioactive ATP is removed by washing and incorporation of the radiolabeled phosphate into the kinase substrate is assayed to detect phosphoryltransferase activity, which is directly proportional to the amount of phosphorylated substrate. Inhibition of the kinase by a kinase inhibitor prevents phosphorylation of the substrate and thereby limits the incorporation of radiolabeled phosphate. Such an assay is compatible with a microwell assay format, allowing simultaneous determination of IC50 of multiple compounds.
# (§2) The effect of various compounds on the inhibition of other kinases has also been determined. Table 2 reports measured IC50 values; value units are nanomolar inhibition.
# ROCK-2 = ROCK-2 (Homo sapiens (Human), UniProt O75116); assay: KinaseProfiler radiometric assay (14-451KP); assay type: biochemical; details: mean of at least two independent experiments
# Excerpt: as §1, §2
# AKT-1 = AKT-1 (Homo sapiens (Human), UniProt P31749); assay: KinaseProfiler radiometric assay (14-276KP); assay type: biochemical; details: mean of at least two independent experiments
# Sequence of AKT-1 (P31749 whole entry): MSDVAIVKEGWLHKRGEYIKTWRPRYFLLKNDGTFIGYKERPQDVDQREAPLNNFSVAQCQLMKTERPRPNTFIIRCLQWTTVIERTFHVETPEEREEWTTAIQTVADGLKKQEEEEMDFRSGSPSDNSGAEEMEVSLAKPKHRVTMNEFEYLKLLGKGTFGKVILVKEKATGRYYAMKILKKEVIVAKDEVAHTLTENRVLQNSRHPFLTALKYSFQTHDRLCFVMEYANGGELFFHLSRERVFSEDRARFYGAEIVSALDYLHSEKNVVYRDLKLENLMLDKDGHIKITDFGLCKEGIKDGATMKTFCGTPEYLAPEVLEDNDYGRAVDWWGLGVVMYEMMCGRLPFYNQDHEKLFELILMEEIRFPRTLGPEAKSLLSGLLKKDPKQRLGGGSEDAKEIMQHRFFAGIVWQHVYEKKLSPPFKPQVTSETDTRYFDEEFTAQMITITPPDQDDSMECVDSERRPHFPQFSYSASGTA
# Excerpt: as §1, §2
# AUR-B = AUR-B (Homo sapiens (Human), UniProt Q96GD4); assay: KinaseProfiler radiometric assay (14-835KP); assay type: biochemical; details: mean of at least two independent experiments
# Sequence of AUR-B (Q96GD4 whole entry): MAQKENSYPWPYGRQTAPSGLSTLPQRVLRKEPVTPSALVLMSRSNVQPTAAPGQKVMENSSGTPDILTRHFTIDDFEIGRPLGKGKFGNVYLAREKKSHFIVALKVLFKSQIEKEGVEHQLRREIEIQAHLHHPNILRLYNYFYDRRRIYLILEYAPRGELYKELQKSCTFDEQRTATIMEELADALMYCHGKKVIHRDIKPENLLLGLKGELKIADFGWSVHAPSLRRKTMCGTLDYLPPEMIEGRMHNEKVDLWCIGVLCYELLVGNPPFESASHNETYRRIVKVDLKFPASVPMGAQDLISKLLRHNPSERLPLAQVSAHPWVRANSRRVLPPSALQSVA
# Excerpt: as §1, §2
# TRK-B = TRK-B (Homo sapiens (Human), UniProt Q16620); assay: KinaseProfiler radiometric assay (14-507KP); assay type: biochemical; details: mean of at least two independent experiments
# Sequence of TRK-B (Q16620 32-822): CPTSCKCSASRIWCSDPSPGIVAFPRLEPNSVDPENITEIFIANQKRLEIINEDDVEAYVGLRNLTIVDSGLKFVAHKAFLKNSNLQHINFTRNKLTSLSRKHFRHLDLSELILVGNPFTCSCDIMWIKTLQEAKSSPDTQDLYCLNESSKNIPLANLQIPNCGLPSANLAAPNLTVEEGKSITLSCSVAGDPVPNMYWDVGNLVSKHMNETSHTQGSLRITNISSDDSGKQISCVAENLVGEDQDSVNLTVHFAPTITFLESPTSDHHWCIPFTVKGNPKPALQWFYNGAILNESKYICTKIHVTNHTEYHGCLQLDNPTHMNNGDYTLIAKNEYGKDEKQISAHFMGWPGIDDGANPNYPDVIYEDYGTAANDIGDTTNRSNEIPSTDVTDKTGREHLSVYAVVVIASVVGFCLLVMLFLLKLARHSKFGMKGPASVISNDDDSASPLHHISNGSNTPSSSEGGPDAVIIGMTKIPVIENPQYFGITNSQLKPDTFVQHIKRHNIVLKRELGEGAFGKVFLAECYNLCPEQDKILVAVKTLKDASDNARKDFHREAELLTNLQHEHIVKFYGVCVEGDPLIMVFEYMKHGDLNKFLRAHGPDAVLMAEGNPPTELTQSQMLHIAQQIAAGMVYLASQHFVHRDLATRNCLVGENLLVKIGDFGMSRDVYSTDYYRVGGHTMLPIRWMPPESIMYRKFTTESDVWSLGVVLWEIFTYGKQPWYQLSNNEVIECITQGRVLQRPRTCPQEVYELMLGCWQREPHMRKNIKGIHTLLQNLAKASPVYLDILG
# Excerpt: as §1, §2
# PKAα = PKAα (Homo sapiens (Human), UniProt P17612); assay: KinaseProfiler radiometric assay (14-440KP); assay type: biochemical; details: mean of at least two independent experiments
# Excerpt: as §1, §2
# ROCK-1 = ROCK-1 (Homo sapiens (Human), UniProt Q13464); assay: KinaseProfiler radiometric assay (14-601KP); assay type: biochemical; details: mean of at least two independent experiments
# Excerpt: as §1, §2
# VCaP cells = assay: Androgen-induced citron kinase expression, western blotting; assay type: cell-based; details: low doses of androgen, 48 hours
# Procedure: (§3) FIG. 1A: LNCaP (top panel) and VCaP cells (bottom panel) were treated with increasing doses of the synthetic androgen R1881 for 48 hours. CIT and j-actin expression were analyzed by western blotting. FIG. 1B: LNCaP (left panel) and VCaP cells (right panel) were treated with increasing doses of the natural androgen dihydrotestosterone (DHT) and analyzed as for FIG. 1A.
# LNCaP cells = assay: as above; assay type: cell-based; details: low doses of androgen, 48 hours
# Procedure: as §3
# [4] = HEK293T cells transfected with NanoLuc-CITK, Tracer K10 1 μM, 2 hours
# [5] = mean of at least two independent assays, read-out: Radiometric CitK IC50
# T1 sequence (O14578 whole entry): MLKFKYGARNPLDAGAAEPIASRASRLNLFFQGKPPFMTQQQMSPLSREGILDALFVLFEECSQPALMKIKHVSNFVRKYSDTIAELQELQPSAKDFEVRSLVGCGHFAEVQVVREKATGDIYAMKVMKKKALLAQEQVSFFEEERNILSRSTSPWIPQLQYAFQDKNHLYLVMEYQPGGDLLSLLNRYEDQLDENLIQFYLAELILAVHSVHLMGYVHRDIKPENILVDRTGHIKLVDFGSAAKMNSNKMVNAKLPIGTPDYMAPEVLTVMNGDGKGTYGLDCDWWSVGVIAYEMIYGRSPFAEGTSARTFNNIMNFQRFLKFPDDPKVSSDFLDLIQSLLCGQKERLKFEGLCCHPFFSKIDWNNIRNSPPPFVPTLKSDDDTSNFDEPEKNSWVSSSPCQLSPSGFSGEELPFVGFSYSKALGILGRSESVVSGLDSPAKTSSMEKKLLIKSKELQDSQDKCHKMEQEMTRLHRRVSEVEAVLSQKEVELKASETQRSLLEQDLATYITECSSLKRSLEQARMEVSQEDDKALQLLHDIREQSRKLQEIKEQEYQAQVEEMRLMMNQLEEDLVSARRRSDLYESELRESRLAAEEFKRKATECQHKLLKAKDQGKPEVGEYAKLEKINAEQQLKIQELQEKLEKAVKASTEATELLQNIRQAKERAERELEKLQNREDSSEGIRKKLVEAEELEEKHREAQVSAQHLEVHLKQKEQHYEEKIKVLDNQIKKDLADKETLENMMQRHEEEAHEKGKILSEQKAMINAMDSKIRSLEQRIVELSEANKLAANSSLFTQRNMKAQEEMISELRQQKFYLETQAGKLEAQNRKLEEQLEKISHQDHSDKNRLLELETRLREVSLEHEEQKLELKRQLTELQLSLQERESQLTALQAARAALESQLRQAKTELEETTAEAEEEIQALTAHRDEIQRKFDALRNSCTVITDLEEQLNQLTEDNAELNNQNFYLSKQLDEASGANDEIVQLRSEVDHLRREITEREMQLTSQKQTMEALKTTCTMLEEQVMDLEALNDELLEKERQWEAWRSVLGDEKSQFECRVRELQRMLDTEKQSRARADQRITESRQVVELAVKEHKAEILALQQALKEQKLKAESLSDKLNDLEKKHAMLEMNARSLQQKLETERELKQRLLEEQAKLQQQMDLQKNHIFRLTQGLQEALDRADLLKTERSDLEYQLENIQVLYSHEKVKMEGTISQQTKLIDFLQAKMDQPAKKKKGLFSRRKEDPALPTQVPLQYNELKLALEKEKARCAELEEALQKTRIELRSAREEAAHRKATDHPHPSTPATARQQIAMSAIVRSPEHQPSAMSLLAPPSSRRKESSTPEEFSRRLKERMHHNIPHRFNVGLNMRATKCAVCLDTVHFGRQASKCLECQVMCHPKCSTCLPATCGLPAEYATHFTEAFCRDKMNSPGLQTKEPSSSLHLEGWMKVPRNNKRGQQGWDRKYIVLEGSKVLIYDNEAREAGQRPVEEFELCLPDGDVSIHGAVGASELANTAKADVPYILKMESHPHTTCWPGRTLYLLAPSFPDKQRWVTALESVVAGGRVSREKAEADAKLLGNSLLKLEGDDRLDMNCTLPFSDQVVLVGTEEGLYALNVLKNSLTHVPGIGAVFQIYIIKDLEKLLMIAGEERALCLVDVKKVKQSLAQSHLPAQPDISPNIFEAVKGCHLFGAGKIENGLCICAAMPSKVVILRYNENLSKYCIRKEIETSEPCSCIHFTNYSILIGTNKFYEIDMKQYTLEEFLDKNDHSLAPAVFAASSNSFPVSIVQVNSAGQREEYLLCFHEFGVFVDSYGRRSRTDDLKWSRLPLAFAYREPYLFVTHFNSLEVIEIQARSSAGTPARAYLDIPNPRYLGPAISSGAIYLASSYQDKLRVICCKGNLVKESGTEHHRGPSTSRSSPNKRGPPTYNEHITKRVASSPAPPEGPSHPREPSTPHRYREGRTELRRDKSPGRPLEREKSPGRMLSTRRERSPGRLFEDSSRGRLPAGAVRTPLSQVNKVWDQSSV
Structure (SMILES),IC50 (Citron kinase [1]; [5]) [nM],IC50 (IKKβ) [nM],IC50 (ROCK-2) [nM],IC50 (PKAα) [nM],also measured
"Cc1cc2c(-c3ccc(NC(=O)[C@H](N)CC(C)(C)C)cc3C)cncc2[nH]1 [6-Azaindole Control, reference compound]",–,–,–,–,"IC50 (Citron kinase [1]; biochemical assay described in Example 3, read-out: IC50): > 3000 nM; NanoBRET IC50 (nM) [2, 4]: No binding; KD (nM)* ([2]; in-cell KD from IC50 by Cheng-Prussoff, [Tracer K10] = 1 μM, KD Tracer K10 = 0.23 μM): No binding"
"CC(C)C[C@H](N)C(=O)Nc1ccc(-c2ccnc3[nH]ccc23)cc1 [Compound F-8, (2S)-2-Amino-4-methyl-N-[4-(1H-pyrrolo[2,3-b]pyridin-4-yl)phenyl]pentanamide]",54.1,–,–,–,IC50 (Citron kinase [3]): 29.9 nM
"CC(C)C[C@@H](N)C(=O)Nc1ccc(-c2ccnc3[nH]ccc23)cc1 [Compound F-9, (2R)-2-Amino-4-methyl-N-[4-(1H-pyrrolo[2,3-b]pyridin-4-yl)phenyl]pentanamide]",12.5,111,18,7,"IC50 (AKT-1): 761 nM; IC50 (AUR-B): 230 nM; IC50 (TRK-B): > 3000 nM; IC50 (Citron kinase [3]): 4.9 nM; Kd [2]: 13 nM; IC50 [2, 4]: 67 nM; IC50 (ROCK-1): 230 nM"
"CC(C)(C)[C@@H](N)C(=O)Nc1ccc(-c2ccnc3[nH]ccc23)cc1 [Compound F-13, (2R)-2-Amino-3,3-dimethyl-N-[4-(1H-pyrrolo[2,3-b]pyridin-4-yl)phenyl]butanamide]",–,234,64,1,–
"NC(C(=O)Nc1ccc(-c2ccnc3[nH]ccc23)cc1)C1CC1 (centres unmarked) [Compound F-18, 2-Amino-2-cyclopropyl-N-[4-(1H-pyrrolo[2,3-b]pyridine-4-yl)phenyl]acetamide]",–,–,–,–,IC50 (Citron kinase [3]): 120 nM
"N[C@@H](Cc1ccccc1)C(=O)Nc1ccc(-c2ccnc3[nH]ccc23)cc1 [Compound F-32, (S)-N-(4-(1H-pyrrolo[2,3-b]pyridin-4-yl)phenyl)-2-amino-3-phenylpropanamide]",–,–,–,7,IC50 (AKT-1): 1100 nM; IC50 (AUR-B): 156 nM; IC50 (TRK-B): 469 nM; IC50 (ROCK-1): 119 nM
"N[C@H](Cc1ccccc1)C(=O)Nc1ccc(-c2ccnc3[nH]ccc23)cc1 [Compound F-33, (R)-N-(4-(1H-pyrrolo[2,3-b]pyridin-4-yl)phenyl)-2-amino-3-phenylpropanamide]",–,–,–,3,IC50 (AKT-1): 436 nM; IC50 (AUR-B): 104 nM; IC50 (TRK-B): 332 nM; IC50 (ROCK-1): 107 nM
"CN[C@H](CC(C)C)C(=O)Nc1ccc(-c2ccnc3[nH]ccc23)cc1 [Compound F-41, (2R)-4-Methyl-2-(methylamino)-N-[4-(1H-pyrrolo[2,3-b]pyridin-4-yl)phenyl]pentanamide]",–,345,11,6,–
"Cc1cc2c(-c3ccc(NC(=O)[C@H](N)CC(C)C)cc3)ccnc2[nH]1 [Compound F-48, (2R)-2-Amino-4-methyl-N-[4-[2-methyl-1H-pyrrolo[2,3-b]pyridin-4-yl]phenyl]pentanamide]",–,122,> 3000,> 3000,–
"Cc1cc(NC(=O)[C@H](N)CC(C)C)ccc1-c1ccnc2[nH]ccc12 [Compound F-58, (2R)-2-Amino-4-methyl-N-[3-methyl-4-(1H-pyrrolo[2,3-b]pyridin-4-yl)phenyl]pentanamide]",–,> 3000,104,82,–
"Cc1cc(NC(=O)[C@H](N)C(C)(C)C)ccc1-c1ccnc2[nH]ccc12 [Compound F-59, (2R)-2-Amino-3,3-dimethyl-N-[3-methyl-4-(1H-pyrrolo[2,3-b]pyridin-4-yl)phenyl]butanamide]",49.1,> 3000,546,319,–
"CC(C)C[C@@H](N)C(=O)Nc1ccc(-c2ccnc3[nH]ccc23)cc1F [Compound F-70, (2R)-2-Amino-N-[2-fluoro-4-(1H-pyrrolo[2,3-b]pyridin-4-yl)phenyl]-4-methyl-Pentanamide]",36.9,2300,49,43,–
"COc1cc(-c2ccnc3[nH]ccc23)ccc1NC(=O)[C@H](N)CC(C)C [Compound F-77, (2R)-2-Amino-N-[2-methoxy-4-(1H-pyrrolo[2,3-b]pyridin-4-yl)phenyl]-4-methyl-pentanamide]",–,829,12,26,–
"Cc1c[nH]c2nccc(-c3ccc(NC(=O)C(N)Cc4ccccc4)cc3)c12 (centres unmarked) [Compound F-135, 2-Amino-N-[4-(3-methyl-1H-pyrrolo[2,3-b]pyridin-4-yl)phenyl]-3-phenyl-propanamide]",–,–,–,–,IC50 (Citron kinase [3]): 392 nM
"Cc1cc2c(-c3ccc(NC(=O)[C@@H](N)[C@H](O)C(C)C)cc3C)ccnc2[nH]1 [Compound F-161, (2S,3R)-2-Amino-3-hydroxy-4-methyl-N-[3-methyl-4-(2-methyl-1H-pyrrolo[2,3-b]pyridin-4-yl)phenyl]pentanamide]",19,–,–,–,"Kd [2]: 4.3 nM; IC50 [2, 4]: 23 nM"
"Cc1cc2c(-c3ccc(NC(=O)[C@H](N)[C@@H](O)C(C)C)cc3C)ccnc2[nH]1 [Compound F-162, (2R,3S)-2-Amino-3-hydroxy-4-methyl-N-[3-methyl-4-(2-methyl-1H-pyrrolo[2,3-b]pyridin-4-yl)phenyl]pentanamide]",5,–,–,–,"Kd [2]: 1.9 nM; IC50 [2, 4]: 10 nM"
"COc1cc(-c2ccnc3[nH]c(C)cc23)ncc1NC(=O)[C@H](N)CC(C)(C)C [Compound F-171, (2R)-2-Amino-N-[4-methoxy-6-(2-methyl-1H-pyrrolo[2,3-b]pyridin-4-yl)-3-pyridyl]-4,4-dimethyl-pentanamide]",232,–,–,–,–
"COc1cc(NC(=O)[C@H](N)CC(C)(C)C)cnc1-c1ccnc2[nH]c(C)cc12 [Compound F-172, (2R)-2-Amino-N-[5-methoxy-6-(2-methyl-1H-pyrrolo[2,3-b]pyridin-4-yl)-3-pyridyl]-4,4-dimethyl-pentanamide]",3000,–,–,–,–
"Cc1cc2c(-c3ccc(NC(=O)[C@H](N)C(C)(C)F)cc3C)ccnc2[nH]1 [Compound F-173, (2S)-2-Amino-3-fluoro-3-methyl-N-[3-methyl-4-(2-methyl-1H-pyrrolo[2,3-b]pyridin-4-yl)phenyl]butanamide]",461,–,–,–,–
C[C@]1(O)CC[C@H]2[C@@H]3CCC4=CC(=O)CCC4=C3C=C[C@@]21C [Compound R1881],–,–,–,–,citron kinase expression (VCaP cells): significant increase; citron kinase expression (LNCaP cells): significant increase
